Reference: patent US8367727B2, “Method of using abscisic acid to treat diseases and disorders” (priority 2006, dated 2013)

Tests used:
db/db mice = assay: Intraperitoneal glucose tolerance test (IPGTT) in db/db mice; type: in vivo
Procedure: Experiment 1: mice (n=25) were fed high-fat (>40% energy from fat), isocaloric, isonitrogenous diets containing 0, 100, 200, 400, and 800 mg of a racemic (±) ABA mixture/kg diet for 36 days (Table 1) (Sigma). These doses were chosen based on the standard concentrations of TZDs utilized in the treatment of NIDDM. The mice were weighed and their food intake was recorded daily. On day 36 of the study fasted mice (12 h) were bled through the caudal vein and fasting blood glucose concentrations were determined. To investigate the ability of ABA to normalize glucose concentrations, an intraperitoneal glucose tolerance test (IPGTT) was performed on day 36 on the fasted mice. Briefly, mice were bled at 0, 10, 25, and 45 minutes following the administration of glucose (2 g/kg) for measurement of plasma glucose levels. […] Weights were recorded for WAT, interscapular brown adipose tissue (BAT), and liver.
Experiment 2: The ABA dose utilized (100 mg ABA/kg) was based on the results obtained from the IPGTT of the ABA titration study (i.e., Experiment 1). Mice in experiment 2 were fed high-fat diets containing 0 or 100 mg ABA/kg for 36 days. Their body weights and food intake was recorded daily, and blood was collected on day 36 of the study during an IPGTT. This IPGTT included one additional 100 minutes time point. […] Weights were recorded for abdominal WAT, BAT, and liver.

[1] = test system: white adipose tissue (WAT) of db/db mice; assay: WAT histology: adipocyte area and macrophage infiltration; type: in vivo
Source text: Hepatic and adipose sections were fixed in 10% buffered neutral formalin, embedded in paraffin, cut at thicknesses of 7 microns and later stained with hematoxylin and eosin (H&E) for histological examination of adipocyte hypertrophy and inflammatory lesions. Hepatic sections were scored based on the amount of lipodystrophy observed according to the Nonalcoholic steatohepatitis (NASH) scoring method, with a score of 0 signifying <5% of the cells contain lipid droplets and a score of 4 signifying that >75% of the cells contained lipids and a magnification of 400× (23). The final score was the average of five randomly chosen fields. The area of adipocytes from WAT was analyzed using Sigma Pro® 5.0 software at a magnification of 100×, and macrophage infiltration was determined by averaging the number of macrophages observed in five different fields at 400×.

Total lymphocytes = assay: Lymphocyte blastogenesis test (LBT); type: cell-based, mice; settings: 100 mg ABA/kg diet
Procedure: Single cell suspensions were prepared from the spleen by gently crushing the spleens excised during the necropsy procedure between the frosted ends of microscope glass slides previously autoclaved. Tissue debris were removed by settling, erythrocytes were eliminated by hypotonic lysis and cells finally resuspended in complete RPMI (cRPMI, 10% fetal bovine serum (Hyclone, Logan, Utah), 25 mM HEPES buffer (Sigma, St. Louis, Mo.), 100 units/ml penicillin (Sigma), […] streptomycin (Sigma), 1 mM sodium pyruvate (Sigma), 1 mM nonessential aminoacids (Sigma), and 2 mM essential amino acids (Mediatech), and enumerated with a Coulter Z1 Single Particle Counter (Beckman Coulter, Miami, Fla.).
Wells of 96-well, round bottom microtiter plates were seeded with 2×10^5 splenocytes in a total volume of […] per well. Cells were cultured in cRPMI media with or without 2.5 μg/ml of Concanavalin A (Sigma) for 4 days. On day 4, […] of methyl-[^3Thymidine] was added to each well, and cells we incubate for 20 additional hours. Well contents were harvested onto glass fiber filters using cell harvester, and incorporated radioactivity measured by liquid scintillation counting. Samples were run in triplicate for each animal and ex-vivo treatment. Stimulation indices were calculated by dividing counts per minute of mitogen-stimulated wells by counts per minute of unstimulated wells.

MCP-1 promoter = MCP-1 promoter luciferase reporter in 3T3-L1 pre-adipocytes; type: cell-based
Procedure: 3T3-L1 cells (American Type Culture Collection, Manassas, Va.) were grown in 24-well plates in DMEM high glucose medium (Invitrogen, Carlsbad, Calif.) containing 10% fetal bovine serum (FBS) until 60-70% confluence. Before transfection, the medium was changed to 1% FBS. The cells cultured in 24-well plates were co-transfected with 0.8 μg plasmid DNA and 1 ng of pRL reporter control plasmid per well using F-1 transfection reagents (Targeting Systems, Santee, Calif.) according to the manufacturer's protocol. Transfection efficiencies were determined by cotransfecting the cells with a pcDNA™ 3.1/His/lacZ control vector at 24 h. The transfected cells were then treated with either a racemic ABA mixture (12.5 μM; Sigma) or rosiglitazone (1 μM; Cayman Chemicals, Ann Arbor, Mich.) for 24 hours. Designated wells were also treated with the PPAR γ antagonist GW9662 (30 μM; Cayman Chemicals). Transfected cells were harvested in reporter lysis reagent. Luciferase activity, normalized to pRL activity in the cell extracts was determined by using the dual luciferase reporter assay system (Promega, Madison, Wis.) in a TD-20/20 Single-Tube Luminometer (Turner Biosystems, Sunnyvale, Calif.). Relative luciferase activity (RLA) was calculated as a ratio of the chemiluminescence 10 seconds after the Luciferase Assay Reagent II (Promega) was added over the chemiluminescence 10 seconds after the Stop&Glo Reagent (Promega).
To further examine the effect of ABA on MCP-1 transactivation, 3T3-L1 preadipocytes were transfected with a MCP-1 promoter luciferase reporter construct and also cotransfected with a pCMX PPAR γ expression plasmid to increase endogenous PPAR γ activity. Cells were then treated with ABA (12.5 μM), rosiglitazone (1 μM), the PPAR γ antagonist GW9662 (30 μM), or a combination of agonist and inhibitor.

PPAR γ = target: T1, PPAR γ (Mus musculus, UniProt P37238); settings: ABA 12.5 μM, rosiglitazone 1 μM; previously found (ref 48); cited from earlier work
T1 construct: expressed in transfected cells; host or cells: 3T3-L1 pre-adipocytes (ATCC)
T1 sequence (P37238 1-505): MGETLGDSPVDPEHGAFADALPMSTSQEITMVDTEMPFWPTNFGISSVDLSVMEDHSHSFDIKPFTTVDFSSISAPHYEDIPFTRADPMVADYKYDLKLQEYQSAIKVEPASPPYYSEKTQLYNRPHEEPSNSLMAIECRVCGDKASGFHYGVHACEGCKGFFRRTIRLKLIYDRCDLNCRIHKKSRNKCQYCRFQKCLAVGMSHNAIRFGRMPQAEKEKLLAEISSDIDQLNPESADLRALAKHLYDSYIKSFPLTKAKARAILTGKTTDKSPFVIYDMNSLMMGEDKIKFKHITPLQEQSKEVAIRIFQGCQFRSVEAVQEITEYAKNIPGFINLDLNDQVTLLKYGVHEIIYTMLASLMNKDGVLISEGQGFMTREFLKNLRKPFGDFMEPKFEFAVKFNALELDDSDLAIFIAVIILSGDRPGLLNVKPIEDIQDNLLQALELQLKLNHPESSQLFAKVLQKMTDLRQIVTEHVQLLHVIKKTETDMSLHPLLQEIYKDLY

CC1=CC(=O)CC(C)(C)C1(O)/C=C/C(C)=C\C(=O)O (racemic) [ABA, abscisic acid]
response in glucose homeostasis during the IPGTT, dose comparison (db/db mice; Experiment 1, 100 mg ABA/kg dose): most favorable response
response to the IPGTT (db/db mice; Experiment 1, day 36): improved response to the IPGTT
glucose levels during IPGTT versus control (db/db mice; Experiment 2, 100 mg ABA/kg diet): significantly lower at every time point up to 100 minutes
adipocyte size in WAT ([1]; ABA-fed vs control-fed db/db mice): significantly more small adipocytes and fewer hypertrophic adipocytes
macrophages infiltrating WAT ([1]; ABA-fed vs control-fed, P<0.05): significantly lower number of macrophages
LBT Total lymphocytes SI (Total lymphocytes): 9.22
MCP-1 promoter activity (MCP-1 promoter; ABA 12.5 μM, rosiglitazone 1 μM, co-transfection with PPAR γ expression vector): significantly enhanced the ability of both ABA and rosiglitazone to inhibit MCP-1 promoter activity
effects on MCP-1 transactivation under cotreatment with antagonist (MCP-1 promoter; plus GW9662 30 μM): significantly inhibited by cotreatment with GW9662
PPAR γ transactivation, comparison of the two agonists (PPAR γ): equally effective
